Like-named read-outs stand apart in the source and are kept apart here.
Key:
[1] = molecular target: T1, rat SK2 (Rattus norvegicus, UniProt P70604); experiment: Whole-cell patch-clamp of SK2 currents in CHO cells; format: cell-based; conditions: 20 μM
T1 construct: expressed in transfected cells; host or cells: CHO cells
Method: (§1) Constructs: For CHO cell transfection, the following were cloned: human SK1, rat SK2, human SK3, and rat calmodulin into the pcDNA3 vector, human SK4 into pEGFP-C1 vector, and PIP4,5-kinase into an IRES-dsRed plasmid. The mutations were introduced using the PCR-based QuikChange™ site-directed mutagenesis (Stratagene®) and were verified by full sequencing of the entire plasmid vector.
(§2) Cell Culture and Transfection: Chinese hamster ovary (CHO) cells were grown in Dulbecco's modified Eagle's medium supplemented with 2 millimolar (mM) glutamine, 10% fetal calf serum, and antibiotics. In brief, 40,000 cells seeded on poly-L-lysine-coated glass coverslips (13 millimeter (mm) in diameter) in a 24-multiwell plate were transfected with 0.5 microgram (μg) pEGFP-SK4/0.5 μg mutant SK4, 1.2 μg dsRed-PIP4,5-kinase or with 1 μg SK1/SK2/SK3 together with pIRES-CD8 (0.3 μg) as a marker for transfection. […]
(§3) Whole-cell patch-clamp recording: Voltage-clamp recordings were performed using the whole-cell configuration of the patch-clamp technique. […] The intracellular pipette solution contained 130 mM KCl, 5 mM EGTA, 10 mM HEPES, pH 7.3 (adjusted with KOH), and CaCl2 calculated for a final concentration of 1 μM free-Ca^2+, by MAXCHELATOR (WEBMAXC STANDARD) software, with sucrose added to adjust osmolarity to 290 mosM. […]

[2] = molecular target: T2, human SK3 (Homo sapiens, UniProt Q9UGI6); experiment: Whole-cell patch-clamp of SK3 currents in CHO cells; format: cell-based; conditions: 20 μM
T2 construct: expressed in transfected cells; host or cells: CHO cells
Method: as §1, §2, §3

[3] = molecular target: T3, WT SK4 channel co-transfected with CaM (Homo sapiens, UniProt O15554); experiment: Whole-cell patch-clamp of WT SK4 channel co-transfected with WT CaM or CaM mutants; format: cell-based
T3 construct: expressed in transfected cells; host or cells: CHO cells
Method: as §1
(§4) Whole-cell patch-clamp recording: Voltage-clamp recordings were performed using the whole-cell configuration of the patch-clamp technique. Signals were amplified using an […] patch-clamp amplifier (Molecular Devices), sampled at 5 kHz and filtered at 2.4 kHz via a four pole Bessel low pass filter. Data were acquired using pClamp™ 10.5 software in conjunction with an Axon™ DigiData® 1440A interface (Molecular Devices). The patch pipettes were pulled from borosilicate glass (Harvard Apparatus) with a resistance of 3-5 megaohms (MΩ). The intracellular pipette solution contained 130 mM KCl, 5 mM EGTA, 10 mM HEPES, pH 7.3 (adjusted with KOH), and CaCl2 calculated for a final concentration of 1 μM free-Ca^2+, by MAXCHELATOR (WEBMAXC STANDARD) software, with sucrose added to adjust osmolarity to 290 mosM. The external solution (310 mosM) contained 140 mM NaCl, 4 mM KCl, 1.8 mM CaCl2, 1.2 mM MgCl2, 11 mM glucose, and 5.5 mM HEPES adjusted with NaOH to pH 7.3. CHO cells were held at −90 millivolt (mV) and SK4 K^+ currents were activated using a voltage ramp protocol from −100 mV to +60 mV for 150 milliseconds. Electrophysiological data analysis was performed using the Clampfit program (pClamp™ 10.5; Molecular Devices).
(§5) To examine ex-vivo the interactions between BA6b9 and the simulated residues seen in FIG. 5B, residues that are in atomic proximity and are expected to interact with BA6b9 were mutated. Such mutated residues were, for example, R191 and H192 of linker S4-S5, M72 and M76 of the CaM linker as well as L19, E22, Y179, S181, A184, Q187 and R189, which are more distant from BA6b9.

[4] = molecular target: T4, SK4 channel mutants (Homo sapiens, UniProt O15554, H192A); experiment: Whole-cell patch-clamp of SK4 channel mutants; format: cell-based; conditions: read-out: inhibition of SK4 mutant H192A current
T4 construct: expressed in transfected cells; host or cells: CHO cells
Method: as §1, §4, §5

[5] = molecular target: T5, SK4 channel mutants (Homo sapiens, UniProt O15554, E22A); experiment: Whole-cell patch-clamp of SK4 channel mutants; format: cell-based; conditions: read-out: inhibition of SK4 mutant E22A current
T5 construct: expressed in transfected cells; host or cells: CHO cells
Method: as §1, §4, §5

[6] = molecular target: T6, SK4 channel mutants (Homo sapiens, UniProt O15554, L19W); experiment: Whole-cell patch-clamp of SK4 channel mutants; format: cell-based; conditions: read-out: inhibition of SK4 mutant L19W current
T6 construct: expressed in transfected cells; host or cells: CHO cells
Method: as §1, §4, §5

[7] = molecular target: T7, SK4 channel mutants (Homo sapiens, UniProt O15554, R352Q); experiment: Whole-cell patch-clamp of SK4 channel mutants; format: cell-based; conditions: read-out: inhibition of SK4 mutant R352Q current
T7 construct: expressed in transfected cells; host or cells: CHO cells
Method: as §1, §4, §5

[8] = molecular target: T8, SK4 channel mutants (Homo sapiens, UniProt O15554, R191A); experiment: Whole-cell patch-clamp of SK4 channel mutants; format: cell-based; conditions: read-out: inhibition of SK4 mutant R191A current
T8 construct: expressed in transfected cells; host or cells: CHO cells
Method: as §1, §4, §5

[9] = tested on: SK4 channel mutants; experiment: Whole-cell patch-clamp of SK4 channel mutants; format: cell-based, human; conditions: 20 μM
Method: as §1, §4, §5

- SK2 activity in comparison with control [1]: 134%
- SK2 drug-to-control current ratio [1]: 1.34
- SK3 activity in comparison with control [2]: 95%
- SK3 drug-to-control current ratio [2]: 0.95
- modulation of WT SK4 co-transfected with CaM mutant M72A (representative trace) ([3]; 20 μM): not indicating modulation
- inhibition at 20 µM ([3]; read-out: inhibition of WT SK4 co-transfected with CaM mutant M72A): 0%
- inhibition at 20 µM ([3]; read-out: inhibition of WT SK4 co-transfected with CaM mutant M76A): 19%
- inhibition at 20 µM ([3]; read-out: inhibition of WT SK4 co-transfected with WT CaM): 47%
- inhibition at 20 µM [4]: 16%
- inhibition at 20 µM [5]: 56%
- inhibition at 20 µM [6]: 46%
- inhibition at 20 µM [7]: 31%
- inhibition at 20 µM [8]: 30%
SMILES: CCCCCCCn1c(=O)oc2ccccc21 [BA6b9, 3-heptylbenzo[d]oxazol-2(3H)-one]
- sensitivity of mutants R352Q, R191A, H192A to inhibition compared to WT SK4 [9]: significantly less sensitive

Source: patent US20240366571A1, “MODULATORS OF SK4 POTASSIUM CHANNEL AND USES THEREOF” (Ramot at Tel-Aviv University Ltd., priority 2022, published 2024)
